Measured values: patent US12622944B2, “Compositions containing, methods involving, and uses of non-natural amino acid linked dolastatin derivatives” (priority 2011, dated 2026)
Where two headings read alike, the source gives them in different places.

Legend:
[1] = system: HCC1954 (human breast carcinoma) xenograft; assay: In vivo anti-tumor efficacy in HCC1954 xenograft, SCID-bg mice; conditions: 25 mg/kg iv qod × 5; day 28; HCC1954 study
Protocol: HCC1954 (human breast carcinoma) cells were obtained from American Type Culture Collection (Manassas, VA) and cultured in RPMI+10% FBS, 37° C., 5% CO2 until 80% confluent. Cells were harvested by trypsinization and suspended in PBS at 1×10^8 cells/mL.
Female, SCID-beige mice, 5-8 weeks old, were obtained from Charles River Laboratories. HCC1954 cells (human, breast carcinoma, ATCC, #CRL-2338) were mixed 1:1 with Matrigel (BD Biosciences, Bedford MA) and injected subcutaneously into the mice. When tumors reached an average size of 100-200 mm^3, mice were sorted into groups of 9-10 mice each. Caliper measurements were taken twice weekly until the end of the study. To estimate tumor volume, two orthogonal diameters were measured with calipers and the values entered into the formula, (L×W×W)/2=V, (where W=the shortest diameter, L=the longest diameter and V-volume), to obtain an estimated volume. The tumor volume was converted to tumor weight in the Excel data file by assuming 1 mm^3=1 mg. Endpoint was based on a study design of tumor growth inhibition (TGI). When the mean tumor volume of the control group reached approx. 1,000 mm^3 all mice were euthanized or day 28, whichever came first. […]
HCC1954 cells were utilized for this study with 10 cells/mouse in Matrigel, SC in the right flank. […] Tumor volume was monitored until the endpoint was reached (1,000 mm^3 or 60 days). […]

BT474 = assay: In vitro inhibition of proliferation assay (WST-8), BT474; format: cell-based
Protocol: (§1) At day 1, the cells were seeded. The media was aspirated and the T-225 culture flasks of cells was rinsed with 30 mL PBS−/. PBS was aspirated and 6 mL of 0.25% Trypsin-EDTA was added to each flask. The flasks were incubated at 37° C., 5% CO2 for 2-5 minutes. Adherent cells were dislodged by hitting flask and trypsin was neutralized by adding 14 mL culture medium. The cell suspension was mixed and transferred to a 50 mL conical tube. The cells were spun down at 1200 rpm, 5 min, room temperature. The resultant cell pellet was resuspended in 12 mL of culture medium. The cells were counted in a hemacytometer. Cells were seeded at appropriate cell densities into 96-well flat-bottom, clear plates and incubated overnight at 37° C., 5% CO2 to allow cells to attach. Plating volume was 80 uL/well. 80 uL/well of culture medium was utilized as the “no cell” control.
(§2) Cell plating density examples include: • BT474 (high Her2)—20,000 cells/well in F12k/DMEM (50/50), 10% FBS, P/S • MDA-MB-468 (Her2 negative)-6,000 cells/well in F12k/DMEM (50/50), 10% FBS, P/S • HCC1954—5,000 cells/well in RPMI 1640, 10% FBS, P/S • SKOV-3—6,000 cells/well in RPMI 1640, 10% FBS, P/S • HT29—20,000 cells/well in McCoy's 5A, 10% FBS, P/S
(§3) At day 2, the test samples were added to the cells. The test samples were diluted in culture medium to a 9× stock concentration in Column 2 of a round-bottom 96-well plate. 3× serial dilutions were made from Column 2 to Column 11 with a multi-channel pipettor. 10 uL/well of the above samples was added in duplicate to the appropriate wells of the seeded plate. The total volume in the wells was about 90 uL/well. 10 uL/well of culture medium was added to avoid edge effects for sample wells. Media Control wells were included in the inner wells where no sample was added (just 10 uL/well of culture medium) to be used in proliferation calculations. The plates were incubated at 37° C., 5% CO2 for 72 hrs.
(§4) At day 5, proliferation readout occurred. […] The plates were measured for absorbance at OD 450 nm. […]

HCC1954 = assay: In vitro inhibition of proliferation assay (WST-8), HCC1954; format: cell-based, human; conditions: read-out: IC50 Values [nM] after 72 hr drug treatment
Protocol: as §1, §2
(§5) At day 2, the test samples were added to the cells. […]
as §4

LS513 = assay: In vitro inhibition of proliferation assay (WST-8), LS513; format: cell-based; conditions: Data Set I, experiment Sept. 4, 2010, read-out: IC50 Values [nM] after 72 hr drug treatment
Protocol: as §1
(§6) At day 2, the test samples were added to the cells. The test samples were diluted in culture medium to a 9× stock concentration in Column 2 of a round-bottom 96-well plate. 3× serial dilutions were made from Column 2 to Column 11 with a multi-channel pipettor. 10 uL/well of the above samples was added in duplicate to the appropriate wells of the seeded plate. The total volume in the wells was about 90 uL/well. […]
as §4

NCI-N87 = assay: In vitro inhibition of proliferation assay (WST-8), NCI-N87; format: cell-based; conditions: Data Set I, experiment Sept. 4, 2010, read-out: IC50 Values [nM] after 72 hr drug treatment
Protocol: as §1, §6, §4

SKOV-3 = assay: In vitro inhibition of proliferation assay (WST-8), SKOV-3; format: cell-based
Protocol: as §1, §2, §3, §4

ZR-75-30 = assay: In vitro inhibition of proliferation assay (WST-8), ZR-75-30; format: cell-based; conditions: Data Set I, experiment Sept. 4, 2010, read-out: IC50 Values [nM] after 72 hr drug treatment
Protocol: as §1, §6, §4

MDA-MB-175 = assay: In vitro inhibition of proliferation assay (WST-8), MDA-MB-175; format: cell-based; conditions: Data Set I, experiment Sept. 13, 2010
Protocol: as §1, §6, §4

HT29 = assay: In vitro inhibition of proliferation assay (WST-8), HT29; format: cell-based; conditions: Data Set II, experiment Sept. 24, 2010, read-out: IC50 Values [nM] after 72 hr drug treatment
Protocol: as §1, §2, §5, §4

MDA-MB-468 = assay: In vitro inhibition of proliferation assay (WST-8), MDA-MB-468; format: cell-based; conditions: Data Set II, experiment Oct. 8, 2010, read-out: IC50 Values [nM] after 72 hr drug treatment
Protocol: as §1, §2, §5, §4

[2] = Data Set I, experiment Sept. 4, 2010, read-out: IC50 Values [nM] after 72 hr drug treatment
[3] = Data Set I, experiment Sept. 13, 2010, read-out: IC50 Values [nM] after 72 hr drug treatment

Molecule	Median Tumor Volume (mm3) [1] [mm3]	T/C (Treated/Control) [1]	IC50 (BT474; [2]) [nM]	IC50 (BT474; [3]) [nM]	IC50 (BT474; Data Set II, experiment Sept. 24, 2010, read-out: IC50 Values [nM] after 72 hr drug treatment) [nM]	IC50 (HCC1954; HCC1954, Data Set I, experiment Sept. 4, 2010) [nM]	IC50 (HCC1954; HCCI954, Data Set II, experiment Oct. 8, 2010) [nM]	IC50 (LS513) [nM]	IC50 (NCI-N87) [nM]	IC50 (SKOV-3; [2]) [nM]	IC50 (SKOV-3; [3]) [nM]	IC50 (SKOV-3; Data Set II, experiment Oct. 8, 2010, read-out: IC50 Values [nM] after 72 hr drug treatment) [nM]	IC50 (ZR-75-30) [nM]	IC50 Values [nM] after 72 hr drug treatment (MDA-MB-175)	IC50 (HT29) [nM]	IC50 (MDA-MB-468) [nM]
CC(=O)O[C@H]1C(=O)[C@@]2(C)[C@H]([C@H](OC(=O)c3ccccc3)[C@]3(O)C[C@H](OC(=O)[C@H](O)[C@@H](NC(=O)c4ccccc4)c4ccccc4)C(C)=C1C3(C)C)[C@]1(OC(C)=O)CO[C@@H]1C[C@@H]2O [paclitaxel]	18	0.037														
Dolastatin			0.1	0.1	2.5	0.06	0.04	0.2	> 30	0.2	0.1	0.2	> 30	no fit	4	< 0.01
